Laboratory results published in article PMC4854315, “Discovery of a novel allosteric inhibitor-binding site in ERK5: comparison with the canonical kinase hinge ATP-binding site” (Acta Crystallographica. Section D, Structural Biology, 2016).

Tests used:
Experiment in all cases: Z'-LYTE kinase panel
Type in all cases: biochemical
EPHB3 = molecular target: T1, EPHB3 (Homo sapiens, UniProt P54753)
T1 construct: purchased ThermoFisher (SelectScreen, Z'-LYTE)
T1 sequence (P54753 34-998): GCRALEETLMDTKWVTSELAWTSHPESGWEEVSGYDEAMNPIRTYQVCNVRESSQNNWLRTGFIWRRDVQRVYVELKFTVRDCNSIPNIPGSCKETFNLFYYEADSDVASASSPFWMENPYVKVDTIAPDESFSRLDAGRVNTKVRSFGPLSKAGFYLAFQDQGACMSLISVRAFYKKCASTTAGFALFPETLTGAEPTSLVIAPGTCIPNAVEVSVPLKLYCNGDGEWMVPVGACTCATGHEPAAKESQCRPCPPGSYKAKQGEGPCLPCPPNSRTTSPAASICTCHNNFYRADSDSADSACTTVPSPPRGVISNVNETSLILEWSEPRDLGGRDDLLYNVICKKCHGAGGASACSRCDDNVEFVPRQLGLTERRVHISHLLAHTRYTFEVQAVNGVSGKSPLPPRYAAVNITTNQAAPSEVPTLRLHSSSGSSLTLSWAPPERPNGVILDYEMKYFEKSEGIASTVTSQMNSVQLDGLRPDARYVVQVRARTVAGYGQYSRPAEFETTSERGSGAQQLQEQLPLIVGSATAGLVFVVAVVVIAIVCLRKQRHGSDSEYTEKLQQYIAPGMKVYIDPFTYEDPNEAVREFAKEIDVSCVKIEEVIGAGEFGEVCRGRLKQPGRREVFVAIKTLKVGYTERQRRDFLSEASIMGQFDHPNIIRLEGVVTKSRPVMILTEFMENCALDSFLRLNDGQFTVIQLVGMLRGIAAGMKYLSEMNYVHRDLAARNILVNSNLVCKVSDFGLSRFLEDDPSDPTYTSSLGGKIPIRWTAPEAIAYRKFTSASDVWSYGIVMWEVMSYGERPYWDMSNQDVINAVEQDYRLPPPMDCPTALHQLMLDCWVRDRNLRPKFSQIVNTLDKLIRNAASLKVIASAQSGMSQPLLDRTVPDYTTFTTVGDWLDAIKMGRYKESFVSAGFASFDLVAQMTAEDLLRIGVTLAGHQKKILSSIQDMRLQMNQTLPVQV
In short: (§1)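 Screened at 10 µM against a 225-kinase panel; the Z′-LYTE standard assay gave percentage inhibition values.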

FGR = molecular target: T2, FGR (Homo sapiens, UniProt P09769)
T2 construct: purchased ThermoFisher (SelectScreen, Z'-LYTE)
In short: as §1

CSNK1G2 (CK1 gamma 2) = molecular target: T3, CSNK1G2 (CK1 gamma 2) (Homo sapiens, UniProt P78368)
T3 construct: purchased ThermoFisher (SelectScreen, Z'-LYTE)
In short: as §1

PRKCB1 (PKC beta I) = molecular target: T4, PRKCB1 (PKC beta I) (Homo sapiens, UniProt P05771)
T4 construct: purchased ThermoFisher (SelectScreen, Z'-LYTE)
In short: as §1

GRK6 = molecular target: T5, GRK6 (Homo sapiens, UniProt P43250)
T5 construct: purchased ThermoFisher (SelectScreen, Z'-LYTE)
In short: as §1

AKT3 (PKB gamma) = molecular target: T6, AKT3 (PKB gamma) (Homo sapiens, UniProt Q9Y243)
T6 construct: purchased ThermoFisher (SelectScreen, Z'-LYTE)
In short: as §1

PRKG1 = molecular target: T7, PRKG1 (Homo sapiens, UniProt Q13976)
T7 construct: purchased ThermoFisher (SelectScreen, Z'-LYTE)
T7 sequence (Q13976 1-671): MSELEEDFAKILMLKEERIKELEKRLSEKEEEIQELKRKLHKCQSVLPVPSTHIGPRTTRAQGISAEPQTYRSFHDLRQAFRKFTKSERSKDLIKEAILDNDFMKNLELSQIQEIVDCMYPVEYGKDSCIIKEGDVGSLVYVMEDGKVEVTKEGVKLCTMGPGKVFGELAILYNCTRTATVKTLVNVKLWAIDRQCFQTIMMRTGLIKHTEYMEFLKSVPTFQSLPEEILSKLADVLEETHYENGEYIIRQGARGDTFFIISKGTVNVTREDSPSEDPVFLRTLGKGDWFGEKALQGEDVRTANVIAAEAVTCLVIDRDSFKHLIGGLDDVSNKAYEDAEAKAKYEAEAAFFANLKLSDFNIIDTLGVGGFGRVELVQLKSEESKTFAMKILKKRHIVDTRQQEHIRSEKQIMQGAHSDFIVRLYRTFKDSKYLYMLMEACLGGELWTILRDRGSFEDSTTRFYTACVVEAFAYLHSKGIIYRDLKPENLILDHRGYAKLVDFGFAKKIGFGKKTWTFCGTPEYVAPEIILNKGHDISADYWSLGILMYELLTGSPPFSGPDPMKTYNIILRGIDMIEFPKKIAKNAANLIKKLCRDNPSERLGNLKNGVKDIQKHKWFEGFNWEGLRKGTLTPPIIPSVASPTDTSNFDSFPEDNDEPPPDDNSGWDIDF
In short: as §1

MAP2K2 (MEK2) = molecular target: T8, MAP2K2 (MEK2) (Homo sapiens, UniProt P36507); conditions: 10 µM compound; ATP 100
T8 construct: purchased ThermoFisher (SelectScreen, Z'-LYTE)
In short: as §1

CAMK1D (CaMKI delta) = molecular target: T9, CAMK1D (CaMKI delta) (Homo sapiens, UniProt Q8IU85)
T9 construct: purchased ThermoFisher (SelectScreen, Z'-LYTE)
In short: as §1

SGKL (SGK3) = molecular target: T10, SGKL (SGK3) (Homo sapiens, UniProt Q96BR1)
T10 construct: purchased ThermoFisher (SelectScreen, Z'-LYTE)
T10 sequence (Q96BR1 1-496): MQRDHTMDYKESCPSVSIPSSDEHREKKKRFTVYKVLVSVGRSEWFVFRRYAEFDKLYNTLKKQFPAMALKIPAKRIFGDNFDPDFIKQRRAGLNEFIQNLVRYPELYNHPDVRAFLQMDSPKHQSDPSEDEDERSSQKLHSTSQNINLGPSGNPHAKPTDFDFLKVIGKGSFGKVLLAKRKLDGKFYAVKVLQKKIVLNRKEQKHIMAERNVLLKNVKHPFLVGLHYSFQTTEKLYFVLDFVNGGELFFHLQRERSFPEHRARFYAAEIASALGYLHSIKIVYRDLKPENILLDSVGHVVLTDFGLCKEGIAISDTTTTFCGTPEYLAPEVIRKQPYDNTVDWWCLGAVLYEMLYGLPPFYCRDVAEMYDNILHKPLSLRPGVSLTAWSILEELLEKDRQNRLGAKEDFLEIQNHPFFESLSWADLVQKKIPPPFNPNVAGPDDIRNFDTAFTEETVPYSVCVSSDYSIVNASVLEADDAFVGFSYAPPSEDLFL
In short: as §1

EPHA5 = molecular target: T11, EPHA5 (Homo sapiens, UniProt P54756)
T11 construct: purchased ThermoFisher (SelectScreen, Z'-LYTE)
In short: as §1

SYK = molecular target: T12, SYK (Homo sapiens, UniProt P43405); conditions: 10 µM compound, ATP Km app
T12 construct: purchased ThermoFisher (SelectScreen, Z'-LYTE)
In short: as §1

HIPK1 (Myak) = molecular target: T13, HIPK1 (Myak) (Homo sapiens, UniProt Q86Z02)
T13 construct: purchased ThermoFisher (SelectScreen, Z'-LYTE)
In short: as §1

T4 sequence (P05771 whole entry): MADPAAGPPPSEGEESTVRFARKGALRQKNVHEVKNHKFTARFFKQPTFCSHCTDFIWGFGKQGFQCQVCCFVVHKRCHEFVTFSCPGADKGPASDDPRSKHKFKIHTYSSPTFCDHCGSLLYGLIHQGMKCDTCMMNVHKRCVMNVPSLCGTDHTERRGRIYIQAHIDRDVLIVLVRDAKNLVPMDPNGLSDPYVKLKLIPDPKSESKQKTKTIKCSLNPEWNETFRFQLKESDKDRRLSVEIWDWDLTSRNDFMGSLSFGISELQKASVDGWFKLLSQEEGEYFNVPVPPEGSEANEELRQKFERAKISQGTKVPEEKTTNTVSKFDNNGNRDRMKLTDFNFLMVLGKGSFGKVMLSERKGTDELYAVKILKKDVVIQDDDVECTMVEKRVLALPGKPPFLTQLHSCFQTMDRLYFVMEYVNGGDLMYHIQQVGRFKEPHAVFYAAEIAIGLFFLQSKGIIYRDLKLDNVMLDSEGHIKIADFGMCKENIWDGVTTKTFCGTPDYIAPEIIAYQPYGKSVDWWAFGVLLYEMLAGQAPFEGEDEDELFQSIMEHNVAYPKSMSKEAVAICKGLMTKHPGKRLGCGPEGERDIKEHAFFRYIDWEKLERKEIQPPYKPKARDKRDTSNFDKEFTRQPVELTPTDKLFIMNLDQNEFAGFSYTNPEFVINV
T3 sequence (P78368 whole entry): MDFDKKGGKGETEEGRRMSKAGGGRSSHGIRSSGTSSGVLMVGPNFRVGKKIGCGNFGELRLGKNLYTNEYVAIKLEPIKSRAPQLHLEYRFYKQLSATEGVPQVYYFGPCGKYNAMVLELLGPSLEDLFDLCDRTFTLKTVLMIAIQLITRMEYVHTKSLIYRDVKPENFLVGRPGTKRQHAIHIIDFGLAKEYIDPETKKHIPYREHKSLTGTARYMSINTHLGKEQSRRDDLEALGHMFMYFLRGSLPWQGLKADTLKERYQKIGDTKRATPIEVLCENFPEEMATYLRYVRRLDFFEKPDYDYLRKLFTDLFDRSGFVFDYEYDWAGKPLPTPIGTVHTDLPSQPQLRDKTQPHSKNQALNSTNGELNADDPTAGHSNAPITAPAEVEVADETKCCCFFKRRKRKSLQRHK
T13 sequence (Q86Z02 whole entry): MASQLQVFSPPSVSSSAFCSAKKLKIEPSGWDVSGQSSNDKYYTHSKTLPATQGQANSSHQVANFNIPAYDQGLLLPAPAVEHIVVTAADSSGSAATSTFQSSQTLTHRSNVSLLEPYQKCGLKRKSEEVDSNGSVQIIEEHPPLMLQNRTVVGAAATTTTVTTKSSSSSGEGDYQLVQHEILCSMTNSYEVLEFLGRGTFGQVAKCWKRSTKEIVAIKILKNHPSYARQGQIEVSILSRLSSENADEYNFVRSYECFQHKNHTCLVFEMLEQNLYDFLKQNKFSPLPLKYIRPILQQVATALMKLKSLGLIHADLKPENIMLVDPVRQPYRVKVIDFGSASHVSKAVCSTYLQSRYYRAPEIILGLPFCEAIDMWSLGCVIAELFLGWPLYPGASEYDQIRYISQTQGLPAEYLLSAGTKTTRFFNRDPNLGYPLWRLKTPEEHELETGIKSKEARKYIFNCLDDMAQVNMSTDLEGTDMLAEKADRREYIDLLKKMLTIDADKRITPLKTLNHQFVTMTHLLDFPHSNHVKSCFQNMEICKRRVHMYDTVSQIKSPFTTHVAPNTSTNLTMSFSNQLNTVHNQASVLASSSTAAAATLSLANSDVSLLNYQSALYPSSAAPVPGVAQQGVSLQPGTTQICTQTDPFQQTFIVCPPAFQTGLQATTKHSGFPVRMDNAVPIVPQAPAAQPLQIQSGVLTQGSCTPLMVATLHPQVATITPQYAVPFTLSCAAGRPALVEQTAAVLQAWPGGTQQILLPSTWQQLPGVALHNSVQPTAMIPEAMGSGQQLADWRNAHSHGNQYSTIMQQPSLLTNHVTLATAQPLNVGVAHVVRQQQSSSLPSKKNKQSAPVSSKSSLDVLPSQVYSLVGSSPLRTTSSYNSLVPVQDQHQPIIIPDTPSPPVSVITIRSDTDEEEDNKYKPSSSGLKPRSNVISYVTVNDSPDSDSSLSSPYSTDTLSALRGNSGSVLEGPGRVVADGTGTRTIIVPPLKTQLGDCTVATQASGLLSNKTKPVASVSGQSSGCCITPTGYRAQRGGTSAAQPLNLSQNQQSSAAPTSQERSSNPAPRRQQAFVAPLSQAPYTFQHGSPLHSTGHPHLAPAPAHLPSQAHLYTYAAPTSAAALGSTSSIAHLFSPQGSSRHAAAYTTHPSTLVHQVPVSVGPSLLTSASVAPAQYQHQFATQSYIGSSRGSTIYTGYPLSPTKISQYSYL
T11 sequence (P54756 25-1037): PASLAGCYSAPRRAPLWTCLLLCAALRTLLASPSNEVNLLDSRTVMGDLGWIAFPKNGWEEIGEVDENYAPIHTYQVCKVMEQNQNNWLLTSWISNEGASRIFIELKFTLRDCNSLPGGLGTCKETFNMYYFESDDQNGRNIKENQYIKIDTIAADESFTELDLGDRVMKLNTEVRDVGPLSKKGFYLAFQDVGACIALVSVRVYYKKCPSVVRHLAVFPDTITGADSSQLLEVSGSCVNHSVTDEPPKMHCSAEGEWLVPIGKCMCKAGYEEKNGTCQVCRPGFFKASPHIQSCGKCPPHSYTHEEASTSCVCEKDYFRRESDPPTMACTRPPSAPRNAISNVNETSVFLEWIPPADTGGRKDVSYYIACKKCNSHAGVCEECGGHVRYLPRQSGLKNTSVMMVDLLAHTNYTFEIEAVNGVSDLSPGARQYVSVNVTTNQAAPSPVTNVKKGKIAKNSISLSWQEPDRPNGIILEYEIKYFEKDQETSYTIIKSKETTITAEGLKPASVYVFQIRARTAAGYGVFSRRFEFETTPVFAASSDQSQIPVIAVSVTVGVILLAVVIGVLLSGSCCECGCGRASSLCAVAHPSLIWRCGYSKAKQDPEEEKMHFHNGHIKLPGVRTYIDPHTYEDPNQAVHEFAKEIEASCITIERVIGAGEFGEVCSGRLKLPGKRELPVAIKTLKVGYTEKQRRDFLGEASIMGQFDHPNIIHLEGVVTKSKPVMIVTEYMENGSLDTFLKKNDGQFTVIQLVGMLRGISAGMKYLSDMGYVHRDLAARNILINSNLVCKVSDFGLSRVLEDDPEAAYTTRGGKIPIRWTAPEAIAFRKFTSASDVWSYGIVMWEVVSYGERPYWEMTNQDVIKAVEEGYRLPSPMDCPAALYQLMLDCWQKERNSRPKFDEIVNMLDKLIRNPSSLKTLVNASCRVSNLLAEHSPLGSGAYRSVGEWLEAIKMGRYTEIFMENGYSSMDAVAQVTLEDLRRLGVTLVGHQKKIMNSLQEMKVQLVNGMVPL
T5 sequence (P43250 whole entry): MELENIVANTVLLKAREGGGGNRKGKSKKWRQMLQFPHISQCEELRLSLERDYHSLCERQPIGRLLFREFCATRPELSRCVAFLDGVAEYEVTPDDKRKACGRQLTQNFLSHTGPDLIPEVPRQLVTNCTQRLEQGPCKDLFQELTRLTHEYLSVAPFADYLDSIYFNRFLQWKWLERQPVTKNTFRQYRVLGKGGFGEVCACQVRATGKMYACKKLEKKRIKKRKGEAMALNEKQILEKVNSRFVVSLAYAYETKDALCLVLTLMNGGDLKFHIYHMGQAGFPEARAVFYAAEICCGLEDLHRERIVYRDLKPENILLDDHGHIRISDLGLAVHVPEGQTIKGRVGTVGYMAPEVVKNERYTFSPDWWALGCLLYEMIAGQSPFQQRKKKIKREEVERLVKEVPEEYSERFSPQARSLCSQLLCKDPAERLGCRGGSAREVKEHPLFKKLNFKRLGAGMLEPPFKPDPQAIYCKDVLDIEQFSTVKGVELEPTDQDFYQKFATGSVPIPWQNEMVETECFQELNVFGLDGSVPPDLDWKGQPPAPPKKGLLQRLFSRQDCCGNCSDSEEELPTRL
T6 sequence (Q9Y243 whole entry): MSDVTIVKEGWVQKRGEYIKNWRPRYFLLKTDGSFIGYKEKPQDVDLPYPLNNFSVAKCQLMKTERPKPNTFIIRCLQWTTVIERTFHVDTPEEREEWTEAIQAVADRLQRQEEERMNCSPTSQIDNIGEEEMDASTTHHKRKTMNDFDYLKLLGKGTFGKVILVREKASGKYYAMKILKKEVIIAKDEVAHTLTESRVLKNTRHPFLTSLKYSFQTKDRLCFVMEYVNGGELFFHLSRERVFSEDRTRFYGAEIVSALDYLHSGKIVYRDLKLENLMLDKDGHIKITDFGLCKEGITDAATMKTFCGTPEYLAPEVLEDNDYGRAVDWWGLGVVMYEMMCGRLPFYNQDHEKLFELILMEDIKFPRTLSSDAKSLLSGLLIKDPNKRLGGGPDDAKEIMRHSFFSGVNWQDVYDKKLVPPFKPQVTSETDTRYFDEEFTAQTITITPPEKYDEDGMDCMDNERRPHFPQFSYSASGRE

| Compound | inhibition at 10 µM (EPHB3) | inhibition at 10 µM (FGR) | inhibition at 10 µM (CSNK1G2 (CK1 gamma 2)) | inhibition at 10 µM (PRKCB1 (PKC beta I)) | inhibition at 10 µM (GRK6) | inhibition at 10 µM (AKT3 (PKB gamma)) | inhibition at 10 µM (PRKG1) | inhibition at 10 µM (MAP2K2 (MEK2)) | inhibition at 10 µM (CAMK1D (CaMKI delta)) | inhibition at 10 µM (SGKL (SGK3)) | inhibition at 10 µM (EPHA5) | inhibition at 10 µM (SYK) | inhibition at 10 µM (HIPK1 (Myak)) | other results |
| --- | --- | --- | --- | --- | --- | --- | --- | --- | --- | --- | --- | --- | --- | --- |
| Cc1ncc(-c2nc(Nc3ccc(C(=O)NCCN4CCCCC4)cc3)ncc2F)n1C(C)C [Compound 3] | 51% | 90% | 93% | 86% | 53% | 43% | 80% | 94% | 59% | 67% | 71% | 90% | 83% | – |
| Cc1cc(Nc2nc(N)nn2C(=O)NC(C)C)ccc1Cl [Compound 5] | 0.2% | 54% | 10% | 2.25% | -0.556% | 2% | -4% | 21% | 0.357% | -11% | 6.49% | > 80% | -2.24% | SYK % Inhibition (SYK; listed as SN1109056190, 10 µM): 85% |
| XMD8-92 [Compound 2, reference compound] | – | – | – | – | – | – | – | – | – | – | – | – | – | EPHB3 % Inhibition (EPHB3; 10 µM compound, ATP Km app): 22%; FGR % Inhibition (FGR; 10 µM compound, ATP Km app): 83%; CSNK1G2 (CK1 gamma 2) % Inhibition (CSNK1G2 (CK1 gamma 2); 10 µM compound, ATP Km app): 11%; PRKCB1 (PKC beta I) % Inhibition (PRKCB1 (PKC beta I); 10 µM compound, ATP Km app): 13%; GRK6 % Inhibition (GRK6; 10 µM compound, ATP Km app): 1.47%; AKT3 (PKB gamma) % Inhibition (AKT3 (PKB gamma); 10 µM compound, ATP Km app): 72%; PRKG1 % Inhibition (PRKG1; 10 µM compound, ATP Km app): 10%; MAP2K2 (MEK2) % Inhibition (MAP2K2 (MEK2)): 24%; CAMK1D (CaMKI delta) % Inhibition (CAMK1D (CaMKI delta); 10 µM compound, ATP Km app): 19%; SGKL (SGK3) % Inhibition (SGKL (SGK3); 10 µM compound, ATP Km app): 96%; EPHA5 % Inhibition (EPHA5; 10 µM compound, ATP Km app): 21%; SYK % Inhibition (SYK): 22%; HIPK1 (Myak) % Inhibition (HIPK1 (Myak); 10 µM compound, ATP Km app): 6% |
